Tests used:
OATP1B3 = molecular target: T1, OATP1B3 (Homo sapiens, UniProt Q9NPD5); conditions: cited from earlier work
T1 sequence (Q9NPD5 1-702): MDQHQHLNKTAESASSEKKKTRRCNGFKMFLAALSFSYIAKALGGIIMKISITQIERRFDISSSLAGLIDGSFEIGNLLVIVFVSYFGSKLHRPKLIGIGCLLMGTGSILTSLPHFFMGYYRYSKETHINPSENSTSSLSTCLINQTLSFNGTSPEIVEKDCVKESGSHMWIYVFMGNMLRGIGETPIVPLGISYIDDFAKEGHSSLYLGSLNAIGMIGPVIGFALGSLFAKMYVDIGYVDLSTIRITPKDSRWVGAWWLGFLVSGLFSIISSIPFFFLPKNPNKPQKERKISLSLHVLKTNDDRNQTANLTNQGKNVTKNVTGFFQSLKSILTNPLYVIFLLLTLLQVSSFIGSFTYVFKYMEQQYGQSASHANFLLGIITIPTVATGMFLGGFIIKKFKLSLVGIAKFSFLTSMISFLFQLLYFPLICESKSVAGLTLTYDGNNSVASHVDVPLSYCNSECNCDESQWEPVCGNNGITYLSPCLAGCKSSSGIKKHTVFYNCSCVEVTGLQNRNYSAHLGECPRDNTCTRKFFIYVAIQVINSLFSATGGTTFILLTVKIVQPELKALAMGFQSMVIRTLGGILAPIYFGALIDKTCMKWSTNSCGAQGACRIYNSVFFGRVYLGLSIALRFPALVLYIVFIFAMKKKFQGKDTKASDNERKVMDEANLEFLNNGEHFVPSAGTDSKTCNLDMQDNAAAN

[1] = Phase-1 drug-drug interaction study of Odalasvir, Simeprevir and Compound (III) in healthy volunteers; type: in vivo, human
Text: The following daily doses were employed:

HCV genotype 3 = experiment: activity against genotype 3 in vitro; set-up: species or system hepatitis C virus
OATP1B1 = molecular target: T2, OATP1B1 (Homo sapiens, UniProt Q9Y6L6); conditions: cited from earlier work
T2 sequence (Q9Y6L6 1-691): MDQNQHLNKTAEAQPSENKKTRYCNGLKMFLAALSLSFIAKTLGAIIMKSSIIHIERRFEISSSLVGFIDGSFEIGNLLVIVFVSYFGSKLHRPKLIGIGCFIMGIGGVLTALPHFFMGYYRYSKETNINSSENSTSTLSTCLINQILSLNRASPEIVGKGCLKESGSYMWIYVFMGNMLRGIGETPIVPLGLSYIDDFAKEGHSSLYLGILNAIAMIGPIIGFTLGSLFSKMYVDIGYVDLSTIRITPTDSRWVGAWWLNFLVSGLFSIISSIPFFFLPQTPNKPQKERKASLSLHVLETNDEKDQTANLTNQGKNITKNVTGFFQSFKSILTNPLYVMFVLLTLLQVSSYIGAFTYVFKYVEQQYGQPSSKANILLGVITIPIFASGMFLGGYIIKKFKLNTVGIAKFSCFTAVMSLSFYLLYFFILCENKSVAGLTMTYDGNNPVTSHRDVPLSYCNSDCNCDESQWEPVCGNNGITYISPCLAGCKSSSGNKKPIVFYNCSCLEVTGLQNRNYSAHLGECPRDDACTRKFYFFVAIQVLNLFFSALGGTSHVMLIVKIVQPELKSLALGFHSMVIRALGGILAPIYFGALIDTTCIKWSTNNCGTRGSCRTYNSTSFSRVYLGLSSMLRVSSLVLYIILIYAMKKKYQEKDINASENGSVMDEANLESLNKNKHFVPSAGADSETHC

[2] = PK of single agents vs fixed dose combinations, single dose in healthy volunteers (Example 13); type: in vivo, human; conditions: mean ± SD
Protocol: SMV (100 mg), ODV (50 mg), and Compound (III) (800 mg) were administered as three different formulations or together as single doses in vivo to healthy volunteers. The arms of the study included: • Arm 1 (Reference Arm): Single oral doses of single agents, one SMV 100-mg capsule, one ODV 50-mg tablet as granule layered solid dispersion with copovidone and poloxamers, and two Compound (III) 400-mg tablets, administered together. • Arm 2: Single oral dose of fixed dose combination (FDC02): SMV 100 mg+ODV 50 mg as a spray dried solid dispersion with HPMC-AS L in a ratio ODV/HPMC-AS L 1/1 w/w+Compound (III) 800 mg • Arm 3: Single oral dose of fixed dose combination (FDC04): SMV 100 mg+ODV 50 mg as a spray dried solid dispersion with HPMC-AS L in a ratio ODV/HPMC-AS L 1/3 w/w+Compound (III) 800 mg • Arm 4: Single oral dose of fixed dose combination (FDC01): SMV 100 mg+ODV 50 mg as a spray dried solid dispersion with copovidone and poloxamers+Compound (III) 800 mg
PK parameters, including Cmax, tmax, AUClast, and AUC∞ were measured for Compound (III), ODV, SMV, and metabolites Compound A-1 and Compound A-3 for each Arm of the study. Arms that included fixed dose combinations (FDC) (Arm 2, Arm 3, and Arm 4) were then compared to a single oral dose (Arm 1, the reference Arm). Table 9, Table 10, Table 11, Table 12 and Table 13 display relevant PK parameters and FIG. 9, FIG. 10, FIG. 11, FIG. 12, and FIG. 13 depict the plasma concentration over time of SMV, ODV, Compound A-1, and Compound A-3 for each Arm of the study.

CYP = CYP inhibition potential; conditions: any CYP
BCRP = molecular target: T3, BCRP (Homo sapiens, UniProt Q9UNQ0); conditions: cited from earlier work
T3 sequence (Q9UNQ0 1-655): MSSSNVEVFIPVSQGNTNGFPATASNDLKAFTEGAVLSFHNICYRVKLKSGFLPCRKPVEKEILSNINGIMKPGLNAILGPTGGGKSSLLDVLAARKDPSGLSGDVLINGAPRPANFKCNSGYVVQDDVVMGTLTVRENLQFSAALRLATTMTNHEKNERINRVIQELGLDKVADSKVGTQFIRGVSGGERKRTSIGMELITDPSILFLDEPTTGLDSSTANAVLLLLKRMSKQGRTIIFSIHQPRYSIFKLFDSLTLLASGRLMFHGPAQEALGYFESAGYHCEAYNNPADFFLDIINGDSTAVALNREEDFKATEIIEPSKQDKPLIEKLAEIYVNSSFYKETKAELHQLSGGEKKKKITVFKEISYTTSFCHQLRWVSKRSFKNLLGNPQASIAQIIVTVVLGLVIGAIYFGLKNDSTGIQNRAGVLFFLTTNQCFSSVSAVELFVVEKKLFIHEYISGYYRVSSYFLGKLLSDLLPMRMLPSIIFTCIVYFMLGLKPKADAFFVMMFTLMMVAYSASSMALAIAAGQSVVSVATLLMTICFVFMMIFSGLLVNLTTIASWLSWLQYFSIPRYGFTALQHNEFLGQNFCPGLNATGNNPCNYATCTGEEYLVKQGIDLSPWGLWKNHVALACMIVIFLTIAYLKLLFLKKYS

[3] = Phase 2a open-label combination study, pharmacokinetics; type: in vivo, human
Protocol: A randomized, Phase 2a, open-label study was carried out to evaluate the safety, pharmacokinetics and efficacy of the combination of Compound (III), Odalasvir and Simeprevir in Genotype 1 treatment-naïve subjects with chronic hepatitis C. Other treatment-naïve subjects included Genotype 2, 3, 4, 5 and 6.
The aim of the study was to determine the efficacy, pharmacokinetics (PK), and safety of Compound (II)+Odalasvir±SMV in HCV-infected subjects.
This was an open-label study evaluating various dosing regimens of Compound (III)+Odalasvir±SMV for 6-8 weeks in treatment-nave HCV-infected subjects with varying clinical characteristics (e.g., GT 1 or 3, presence/absence of compensated Child Pugh A cirrhosis). Efficacy, PK and safety evaluations were conducted during and through 24 weeks post dosing. Up to 15 cohorts were enrolled; data was generated from cohorts that have completed dosing.

[4] = co-administered with SMV; cited from earlier work
BSEP = BSEP (Homo sapiens, UniProt O95342); conditions: cited from earlier work
Chain of BSEP (O95342 whole entry): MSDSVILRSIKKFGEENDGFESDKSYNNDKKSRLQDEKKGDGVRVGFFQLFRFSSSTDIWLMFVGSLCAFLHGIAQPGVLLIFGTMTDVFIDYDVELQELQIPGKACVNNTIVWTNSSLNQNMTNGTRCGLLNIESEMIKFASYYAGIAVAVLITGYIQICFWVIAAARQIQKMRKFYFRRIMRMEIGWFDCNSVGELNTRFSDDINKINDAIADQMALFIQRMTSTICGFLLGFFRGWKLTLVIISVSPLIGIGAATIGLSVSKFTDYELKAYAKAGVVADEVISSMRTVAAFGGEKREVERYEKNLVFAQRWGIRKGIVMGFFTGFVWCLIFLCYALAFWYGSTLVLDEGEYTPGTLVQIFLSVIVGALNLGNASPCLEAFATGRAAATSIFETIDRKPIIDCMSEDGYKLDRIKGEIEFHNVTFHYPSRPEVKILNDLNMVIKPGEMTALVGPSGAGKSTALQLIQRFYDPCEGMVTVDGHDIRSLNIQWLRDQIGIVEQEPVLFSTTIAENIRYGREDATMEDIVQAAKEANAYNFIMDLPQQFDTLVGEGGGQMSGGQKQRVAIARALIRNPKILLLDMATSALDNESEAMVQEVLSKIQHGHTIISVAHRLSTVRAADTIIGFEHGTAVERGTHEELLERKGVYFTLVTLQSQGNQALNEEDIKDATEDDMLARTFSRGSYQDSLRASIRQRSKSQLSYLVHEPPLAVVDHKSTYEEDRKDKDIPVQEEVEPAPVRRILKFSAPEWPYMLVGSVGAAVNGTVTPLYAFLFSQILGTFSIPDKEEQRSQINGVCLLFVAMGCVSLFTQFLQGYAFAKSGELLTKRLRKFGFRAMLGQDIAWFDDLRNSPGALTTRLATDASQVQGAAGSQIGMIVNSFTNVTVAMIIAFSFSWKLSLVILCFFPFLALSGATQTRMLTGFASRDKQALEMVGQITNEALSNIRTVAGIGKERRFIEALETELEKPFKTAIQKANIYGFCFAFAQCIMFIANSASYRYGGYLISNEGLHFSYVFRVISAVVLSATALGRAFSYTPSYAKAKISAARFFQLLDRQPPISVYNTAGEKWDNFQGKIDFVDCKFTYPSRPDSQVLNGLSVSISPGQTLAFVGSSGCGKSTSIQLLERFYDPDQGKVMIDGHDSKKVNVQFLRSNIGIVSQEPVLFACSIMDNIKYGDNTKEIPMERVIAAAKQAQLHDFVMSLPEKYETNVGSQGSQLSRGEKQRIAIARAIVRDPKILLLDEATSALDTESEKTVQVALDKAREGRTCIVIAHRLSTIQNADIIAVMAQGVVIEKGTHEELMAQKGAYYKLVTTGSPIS

MRP2 = MRP2 (Homo sapiens, UniProt Q92887); conditions: cited from earlier work
Chain of MRP2 (Q92887 whole entry): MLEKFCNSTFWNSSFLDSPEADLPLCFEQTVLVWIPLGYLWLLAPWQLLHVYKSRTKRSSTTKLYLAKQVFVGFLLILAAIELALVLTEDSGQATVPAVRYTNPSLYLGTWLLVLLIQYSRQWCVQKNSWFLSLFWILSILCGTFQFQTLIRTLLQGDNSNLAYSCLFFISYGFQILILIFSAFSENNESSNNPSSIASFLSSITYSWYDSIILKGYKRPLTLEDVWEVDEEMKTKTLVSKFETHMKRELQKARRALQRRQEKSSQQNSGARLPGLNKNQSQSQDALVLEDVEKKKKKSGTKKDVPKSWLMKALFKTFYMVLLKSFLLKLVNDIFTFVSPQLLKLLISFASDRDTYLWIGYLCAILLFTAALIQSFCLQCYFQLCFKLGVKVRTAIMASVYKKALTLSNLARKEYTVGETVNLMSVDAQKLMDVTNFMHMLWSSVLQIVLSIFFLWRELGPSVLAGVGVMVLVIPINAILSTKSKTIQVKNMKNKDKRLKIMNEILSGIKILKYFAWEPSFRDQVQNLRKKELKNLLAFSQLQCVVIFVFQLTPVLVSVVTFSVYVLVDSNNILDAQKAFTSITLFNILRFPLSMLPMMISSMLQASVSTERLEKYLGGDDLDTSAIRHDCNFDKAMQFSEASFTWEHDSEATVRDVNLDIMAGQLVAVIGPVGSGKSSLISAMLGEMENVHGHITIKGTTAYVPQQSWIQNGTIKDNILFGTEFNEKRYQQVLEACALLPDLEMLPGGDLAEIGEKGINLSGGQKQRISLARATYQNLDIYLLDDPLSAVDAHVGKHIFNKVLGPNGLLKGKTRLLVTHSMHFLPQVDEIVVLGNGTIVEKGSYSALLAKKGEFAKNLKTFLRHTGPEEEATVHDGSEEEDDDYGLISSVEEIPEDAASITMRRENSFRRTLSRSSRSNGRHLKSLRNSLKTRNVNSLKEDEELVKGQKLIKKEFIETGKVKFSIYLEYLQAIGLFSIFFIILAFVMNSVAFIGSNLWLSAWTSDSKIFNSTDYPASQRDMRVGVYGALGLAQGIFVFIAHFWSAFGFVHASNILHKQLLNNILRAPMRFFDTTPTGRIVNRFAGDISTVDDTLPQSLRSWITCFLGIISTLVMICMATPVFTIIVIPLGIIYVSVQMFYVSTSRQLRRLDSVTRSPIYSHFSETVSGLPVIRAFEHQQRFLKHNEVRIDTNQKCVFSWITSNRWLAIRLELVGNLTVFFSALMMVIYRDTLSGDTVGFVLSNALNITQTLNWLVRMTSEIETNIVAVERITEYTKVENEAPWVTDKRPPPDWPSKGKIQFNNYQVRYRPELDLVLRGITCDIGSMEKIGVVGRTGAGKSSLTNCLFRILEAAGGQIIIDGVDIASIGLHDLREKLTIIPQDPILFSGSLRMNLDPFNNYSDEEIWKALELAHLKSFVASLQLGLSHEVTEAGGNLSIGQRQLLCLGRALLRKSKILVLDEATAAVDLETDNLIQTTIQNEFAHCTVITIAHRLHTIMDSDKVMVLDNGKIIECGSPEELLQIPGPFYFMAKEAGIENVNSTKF

[5] = co-administered with SMV; cited from earlier work; remark: listed apart in the source
P-gp = P-gp (Homo sapiens, UniProt P08183); conditions: cited from earlier work
Chain of P-gp (P08183 whole entry): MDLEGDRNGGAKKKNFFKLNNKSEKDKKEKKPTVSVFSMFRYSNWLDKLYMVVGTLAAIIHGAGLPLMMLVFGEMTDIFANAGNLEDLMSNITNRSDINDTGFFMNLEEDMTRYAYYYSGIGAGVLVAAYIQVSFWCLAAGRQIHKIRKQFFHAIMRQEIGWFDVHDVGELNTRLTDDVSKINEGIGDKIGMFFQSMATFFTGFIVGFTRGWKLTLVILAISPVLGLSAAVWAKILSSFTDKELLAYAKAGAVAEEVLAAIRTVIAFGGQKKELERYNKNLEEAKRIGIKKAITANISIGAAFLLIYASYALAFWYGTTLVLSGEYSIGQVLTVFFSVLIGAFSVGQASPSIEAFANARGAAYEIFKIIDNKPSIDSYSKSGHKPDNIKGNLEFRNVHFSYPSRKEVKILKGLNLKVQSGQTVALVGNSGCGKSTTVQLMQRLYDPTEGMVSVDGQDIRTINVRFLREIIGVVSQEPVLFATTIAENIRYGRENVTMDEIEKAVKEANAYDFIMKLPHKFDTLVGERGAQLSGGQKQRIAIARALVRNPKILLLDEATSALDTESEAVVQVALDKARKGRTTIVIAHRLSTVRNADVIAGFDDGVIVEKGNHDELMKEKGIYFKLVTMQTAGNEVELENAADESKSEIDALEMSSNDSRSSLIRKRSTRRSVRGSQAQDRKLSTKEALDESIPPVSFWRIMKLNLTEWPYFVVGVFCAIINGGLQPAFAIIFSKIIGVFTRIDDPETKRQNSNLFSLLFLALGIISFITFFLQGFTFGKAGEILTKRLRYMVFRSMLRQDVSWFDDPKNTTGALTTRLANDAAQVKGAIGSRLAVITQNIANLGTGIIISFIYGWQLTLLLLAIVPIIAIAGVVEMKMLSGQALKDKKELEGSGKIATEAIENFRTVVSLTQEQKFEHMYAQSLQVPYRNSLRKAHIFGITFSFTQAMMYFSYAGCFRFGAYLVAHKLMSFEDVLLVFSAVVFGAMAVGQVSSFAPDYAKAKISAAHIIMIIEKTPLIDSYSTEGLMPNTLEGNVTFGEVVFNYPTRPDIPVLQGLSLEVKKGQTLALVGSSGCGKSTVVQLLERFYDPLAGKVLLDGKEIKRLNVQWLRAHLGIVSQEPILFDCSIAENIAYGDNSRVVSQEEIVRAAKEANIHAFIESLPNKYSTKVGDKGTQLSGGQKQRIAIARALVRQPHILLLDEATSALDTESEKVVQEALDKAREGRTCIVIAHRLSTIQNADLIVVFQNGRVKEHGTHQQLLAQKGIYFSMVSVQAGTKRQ

[6] = Arm 1 (reference): single agents
[7] = Arm 4: FDC01 (SMV 100 mg + ODV 50 mg spray dried with copovidone and poloxamers + Compound (III) 800 mg)

SMILES	increase of exposure caused by Odalasvir ([1]; DDI study results) [×]	increase of exposure caused by SMV ([1]; DDI study results)	in vitro inhibition of OATP1B1 (OATP1B1)	t1/2term [2, 6] [h]	t1/2term ([2]; Arm 2: FDC02) [h]	t1/2term ([2]; Arm 3: FDC04) [h]	t1/2term ([2]; Arm 4: FDC01) [h]	CYP inhibition potential (CYP)	AUC∞ ([2]; Arm 2: FDC02) [ng·h/mL]	AUClast ([2]; Arm 3: FDC04) [ng·h/mL]	Cmax [2, 7] [ng/mL]	AUClast ([2]; Arm 4: FDC01) [ng·h/mL]	AUC∞ ([2]; Arm 4: FDC01) [ng·h/mL]	other results
CC(C)OC(=O)[C@H](C)N[P@](=O)(OC[C@@]1(F)O[C@@H](n2ccc(=O)[nH]c2=O)[C@](C)(O)[C@@H]1O)Oc1ccccc1 [Compound (III), isopropyl ((S)-(((2S,3S,4R,5R)-5-(2,4-dioxo-3,4-dihydropyrimidin-1 (2H)-yl)-2-fluoro-3,4-dihydroxy-4-methyltetrahydrofuran-2-yl)methoxy)(phenoxy)phosphoryl)-L-alaninate]	4	3 ×	no in vitro inhibition	0.6 ± 0.1	0.7 ± 0.2	0.7 ± 0.1	0.6 ± 0.1	limited	–	–	–	–	–	in vitro inhibition of OATP1B3 (OATP1B3): no in vitro inhibition; bioavailability when SMV and ODV are co-administered with Compound (III), compared to Compound (III) alone ([1]; both, human, in vivo): approximately 8 fold; activity against genotype 3 in vitro (HCV genotype 3): effective; in vitro inhibition of BCRP (BCRP): no in vitro inhibition
C[C@]1(O)[C@H](n2ccc(=O)[nH]c2=O)O[C@](F)(CO)[C@H]1O [Compound A-1]	1.5	no apparent effect	–	19.6 ± 2.7	20.5 ± 3.3	20.2 ± 3.5	18.3 ± 3.5	–	4369 ± 1345	4714 ± 1310	607 ± 208	4693 ± 1418	4555 ± 787	change of A-1 exposure on increasing the Compound (III) dose from 400 to 800 mg ([3]; in vivo): less than proportionally
C[C@H](NP(=O)(O)OC[C@@]1(F)O[C@@H](n2ccc(=O)[nH]c2=O)[C@](C)(O)[C@@H]1O)C(=O)O [Compound A-3]	2.6	1.6 ×	–	2.6 ± 1.4	2.3 ± 0.6	2.9 ± 1.5	2.5 ± 0.7	–	817 ± 133	–	197 ± 62.1	909 ± 244	926 ± 245	AUClast ([2]; Arm 2: FDC02): 790 ± 157 ng·h/mL
COc1ccc2c(O[C@@H]3C[C@H]4C(=O)N[C@]5(C(=O)NS(=O)(=O)C6CC6)C[C@H]5/C=C\CCCCN(C)C(=O)[C@@H]4C3)cc(-c3nc(C(C)C)cs3)nc2c1C [Simeprevir, reference compound]	1.6	–	strong in vitro inhibition	8.3 ± 1.8	8.7 ± 2.3	9.1 ± 1.6	8.5 ± 1.5	limited	–	12893 ± 5828	–	–	–	increase in Rosuvastatin exposure [4]: 3 fold; in vitro inhibition of BSEP (BSEP): strong/moderate; observed exposures in Cohort 1 / group (i) ([3]; Compound (III) 400 mg, ODV 50 mg QD, SMV 100 mg QD): higher than anticipated; decrease of SMV exposure on reducing SMV dosing from 100 mg to 75 mg QD ([3]; in vivo): less than proportionally; effect of Compound (III) on SMV or ODV ([1]; DDI study results): no apparent effect; increase of exposure, effect of the three Compounds ([1]; DDI study results): 1.6 ×; increase of exposure on co-administration of Compounds I, II and III ([1]; human in vivo study (Example 1)): 1.6 times; effect of Compound (III) on bioavailability of SMV or ODV ([1]; human, in vivo): does not alter; increase of bioavailability of SMV by ODV ([1]; human, in vivo): 1.6 fold; in vitro inhibition of MRP2 (MRP2): strong/moderate; increase in exposure of Digoxin [5]: 35%; Cmax ([2]; Arm 3: FDC04 (SMV 100 mg + ODV 50 mg spray dried with HPMC-AS L 1/3 w/w + Compound (III) 800 mg)): 906 ± 321 ng/mL; AUC∞ ([2]; Arm 3: FDC04): 13449 ± 6015 ng·h/mL; in vitro inhibition of P-gp (P-gp): strong/moderate

Source: patent US20180021360A1, “Combination Therapy Regimen For Treatment Of Selected HCV Genotypes” (JANSSEN PHARMACEUTICALS, INC., priority 2016, published 2018)
